These results are taken from US11702404B2, “GLP-1R modulating compounds” (priority 2019, dated 2023).

pEC50: −log10 of the molar value. Read-outs that look alike come from different tables or passages of the source. Some results are limits rather than exact numbers.

A short description of series [1]: Microsomal stability, human liver microsomes (predicted hepatic clearance). The conditions noted are these: predicted from in vitro microsomal stability data.
The target in a further series is GLP-1R (Homo sapiens, UniProt P43220). Nature of the series: GLP-1R activation: cAMP increase in CHO cells stably expressing GLP-1R. In kind it is cell-based. The conditions noted are these: for pEC50: cAMP increase, CHO cells stably expressing GLP-1R, 10 point dose response, 30 minutes incubation, read-out: EC50.
GLP-1R, sequence (P43220 24-463): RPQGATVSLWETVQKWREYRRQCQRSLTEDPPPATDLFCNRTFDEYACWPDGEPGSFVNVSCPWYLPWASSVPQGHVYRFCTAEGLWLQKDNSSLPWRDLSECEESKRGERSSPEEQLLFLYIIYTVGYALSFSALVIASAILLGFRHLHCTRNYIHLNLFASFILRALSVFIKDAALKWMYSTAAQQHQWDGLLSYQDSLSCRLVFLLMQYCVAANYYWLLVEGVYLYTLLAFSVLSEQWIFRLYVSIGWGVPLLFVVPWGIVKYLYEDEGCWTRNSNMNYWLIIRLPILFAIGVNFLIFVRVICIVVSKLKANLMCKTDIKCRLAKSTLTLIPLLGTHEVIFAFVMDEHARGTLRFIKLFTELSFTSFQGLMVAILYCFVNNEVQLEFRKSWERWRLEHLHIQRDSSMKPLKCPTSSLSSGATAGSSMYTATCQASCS

As usually defined, the pEC50 is the EC50 on a negative log10 scale, so that one unit is a factor of ten. As for `COCCn1c(Cc2cc(F)c(-c3cccc(OCc4ccc(C#N)cc4F)n3)cc2F)nc2ccc(C(=O)O)nc21` [Example 208, 2-(4-(6-((4-cyano-2-fluorobenzyl)oxy)pyridin-2-yl)-2,5-difluorobenzyl)-3-(2-methoxyethyl)-3H-imidazo[4,5-b]pyridine-5-carboxylic acid], the “Predicted Hepatic Clearance (Pred. Cl.)” value in series [1] was 3.83 mL/min/kg. The pEC50 at GLP-1R was 8.33.

`N#Cc1ccc(COc2cccc(-c3ccc(Cc4nc5ccc(C(=O)O)cc5n4C4(CF)CC4)cc3F)n2)c(F)c1` [Example 209, 2-(4-(6-((4-cyano-2-fluorobenzyl)oxy)pyridin-2-yl)-3-fluorobenzyl)-1-(1-(fluoromethyl)cyclopropyl)-1H-benzo[d]imidazole-6-carboxylic acid]: the “Predicted Hepatic Clearance (Pred. Cl.)” value in series [1] is 8.5 mL/min/kg. Also, on GLP-1R, the pEC50 is 7.31.

As for `COCCn1c(Cc2ccc(-c3cccc(OCc4ccc(C#N)cc4F)n3)cc2F)nc2ccc(C3(C(=O)O)CC3)cc21` [Example 210, 1-(2-(4-(6-((4-cyano-2-fluorobenzyl)oxy)pyridin-2-yl)-2-fluorobenzyl)-1-(2-methoxyethyl)-1H-benzo[d]imidazol-6-yl)cyclopropane-1-carboxylic acid], the “Predicted Hepatic Clearance (Pred. Cl.)” value in series [1] is 4.42 mL/min/kg. Besides, the negative logarithm of the EC50 (pEC50) on GLP-1R was ≤ 6.00.

In the case of `COCCn1c(Cc2cc(F)c(-c3cccnc3OCc3ccc(C#N)cc3F)cc2F)nc2ccc(C(=O)O)cc21` [Example 211, 2-(4-(2-((4-cyano-2-fluorobenzyl)oxy)pyridin-3-yl)-2,5-difluorobenzyl)-1-(2-methoxyethyl)-1H-benzo[d]imidazole-carboxylic acid], in series [1], the “Predicted Hepatic Clearance (Pred. Cl.)” value is 8.17 mL/min/kg. The pEC50 on GLP-1R was 6.90.

Regarding `COCCn1c(Cc2ccc(-c3cccc(OCC(=O)c4ccc(Cl)cc4)n3)cc2F)nc2ccc(C(=O)O)cc21` [Example 212, 2-(4-(6-(2-(4-Chlorophenyl)-2-oxoethoxy)pyridin-2-yl)-2-fluorobenzyl)-1-(2-methoxyethyl)-1H-benzo[d]imidazole-6-carboxylic acid], the “Predicted Hepatic Clearance (Pred. Cl.)” value in series [1] was <1.83 mL/min/kg. Moreover, the negative-log EC50 (pEC50) on GLP-1R was 7.10.

As to `COCCn1c(Cc2ccc(-c3cccc(OCC(=O)c4ccccc4)n3)cc2F)nc2ccc(C(=O)O)cc21` [Example 214, 2-(2-fluoro-4-(6-(2-oxo-2-phenylethoxy)pyridin-2-yl)benzyl)-1-(2-methoxyethyl)-1H-benzo[d]imidazole-6-carboxylic acid], in series [1], the “Predicted Hepatic Clearance (Pred. Cl.)” value was 16.3 mL/min/kg. Moreover, at GLP-1R, the negative-log EC50 (pEC50) is 6.13.

For `COCCn1c(Cc2ccc(-c3cccc(OCc4ccc(C#N)nc4)n3)cc2F)nc2ccc(C(=O)O)cc21` [Example 216, 2-(4-(6-((6-cyanopyridin-3-yl)methoxy)pyridin-2-yl)-2-fluorobenzyl)-1-(2-methoxyethyl)-1H-benzo[d]imidazole-6-carboxylic acid], in series [1], the “Predicted Hepatic Clearance (Pred. Cl.)” value is <1.83 mL/min/kg. Besides, the pEC50 at GLP-1R was 6.96.

Broadly, the EC50 is the midpoint of the concentration-response curve. Consider `COCCn1c(Cc2cc(F)c(-c3ccc(F)c(OCc4ccc(C#N)cc4F)n3)cc2F)nc2ccc(C(=O)O)cc21` [Example 217, 2-(4-(6-((4-cyano-2-fluorobenzyl)oxy)-5-fluoropyridin-2-yl)-2,5-difluorobenzyl)-1-(2-methoxyethyl)-1H-benzo[d]imidazole-carboxylic acid], for which the “Predicted Hepatic Clearance (Pred. Cl.)” value in series [1] was 2.75 mL/min/kg. The midpoint of the response on GLP-1R (EC50 (nM)), the EC50, lay at 1.72 nM.

For `COCCn1c(Cc2cc(F)c(-c3cccc(OCc4ccc(C#N)cc4F)n3)cc2F)nc2cc(F)c(C(=O)O)cc21` [Example 218, 2-(4-(6-((4-cyano-2-fluorobenzyl)oxy)pyridin-2-yl)-2,5-difluorobenzyl)-5-fluoro-1-(2-methoxyethyl)-1H-benzo[d]imidazole-6-carboxylic acid], in series [1], the “Predicted Hepatic Clearance (Pred. Cl.)” value is 7.83 mL/min/kg. On GLP-1R, the negative-log EC50 (pEC50) is 7.72.

In the case of `N#Cc1ccc(COc2cccc(-c3cc(F)c(Cc4nc5cc(F)c(C(=O)O)cc5n4C[C@@H]4CCO4)cc3F)n2)c(F)c1` [Example 219, (S)-2-(4-(6-((4-cyano-2-fluorobenzyl)oxy)pyridin-2-yl)-2,5-difluorobenzyl)-5-fluoro-1-(oxetan-2-ylmethyl)-1H-benzo[d]imidazole-6-carboxylic acid], in series [1], the “Predicted Hepatic Clearance (Pred. Cl.)” value is 2.83 mL/min/kg. Moreover, the negative logarithm of the EC50 (pEC50) at GLP-1R is 9.16.

On to `C[C@@H](C1CC1)n1c(Cc2ccc(-c3cccc(OCc4ccc(C#N)cc4F)n3)cc2F)nc2ccc(C(=O)O)cc21` [Example 220, (S)-2-(4-(6-((4-cyano-2-fluorobenzyl)oxy)pyridin-2-yl)-2-fluorobenzyl)-1-(1-cyclopropylethyl)-1H-benzo[d]imidazole-6-carboxylic acid], for which the “Predicted Hepatic Clearance (Pred. Cl.)” value in series [1] was 6.5 mL/min/kg. Also, the pEC50 at GLP-1R was 7.42.

Regarding `N#Cc1ccc(COc2cccc(-c3ccc(Cc4nc5cc(F)c(C(=O)O)cc5n4CC4(CF)CC4)c(F)c3)n2)c(F)c1` [Example 221, 2-(4-(6-((4-cyano-2-fluorobenzyl)oxy)pyridin-2-yl)-2-fluorobenzyl)-5-fluoro-1-((1-(fluoromethyl)cyclopropyl)methyl)-1H-benzo[d]imidazole-6-carboxylic acid], the “Predicted Hepatic Clearance (Pred. Cl.)” value in series [1] was 3.5 mL/min/kg. Besides, the pEC50 at GLP-1R is 8.28.

On to `C[C@H](C1CC1)n1c(Cc2ccc(-c3cccc(OCc4ccc(C#N)cc4F)n3)cc2F)nc2ccc(C(=O)O)cc21` [Example 222, (R)-2-(4-(6-((4-cyano-2-fluorobenzyl)oxy)pyridin-2-yl)-2-fluorobenzyl)-1-(1-cyclopropylethyl)-1H-benzo[d]imidazole-6-carboxylic acid], for which the “Predicted Hepatic Clearance (Pred. Cl.)” value in series [1] was 5 mL/min/kg. Besides, on GLP-1R, the negative logarithm of the EC50 (pEC50) was 8.17.

As to `N#Cc1ccc(COc2cccc(-c3ccc(Cc4nc5ccc(C(=O)O)cc5n4C4CCC4)c(F)c3)n2)c(F)c1` [Example 223, 2-(4-(6-((4-cyano-2-fluorobenzyl)oxy)pyridin-2-yl)-2-fluorobenzyl)-1-cyclobutyl-1H-benzo[d]imidazole-6-carboxylic acid], the “Predicted Hepatic Clearance (Pred. Cl.)” value in series [1] was 3.5 mL/min/kg. In addition, the pEC50 on GLP-1R is 7.79.

Regarding `N#Cc1ccc(COc2cccc(-c3ccc(Cc4nc5cccc(C(=O)O)c5n4CC4(CF)CC4)c(F)c3)n2)c(F)c1` [Example 224, 2-(4-(6-((4-cyano-2-fluorobenzyl)oxy)pyridin-2-yl)-2-fluorobenzyl)-1-((1-(fluoromethyl)cyclopropyl)methyl)-1H-benzo[d]imidazole-7-carboxylic acid], the “Predicted Hepatic Clearance (Pred. Cl.)” value in series [1] is 7.5 mL/min/kg. Also, the negative-log EC50 (pEC50) at GLP-1R is 7.63.

On to `N#Cc1ccc(COc2cccc(-c3ccc(Cc4nc5ccc(C(=O)O)cc5n4[C@@H]4CCOC4)c(F)c3)n2)c(F)c1` [Example 225, (R)-2-(4-(6-((4-cyano-2-fluorobenzyl)oxy)pyridin-2-yl)-2-fluorobenzyl)-1-(tetrahydrofuran-3-yl)-1H-benzo[d]imidazole-6-carboxylic acid], for which the “Predicted Hepatic Clearance (Pred. Cl.)” value in series [1] is 3.5 mL/min/kg. Further, on GLP-1R, the negative-log EC50 (pEC50) was 7.88.

Turning to `Cn1nnc(Cn2c(Cc3ccc(-c4cccc(OCc5ccc(C#N)cc5F)n4)cc3F)nc3ccc(C(=O)O)cc32)n1` [Example 226, 2-(4-(6-((4-cyano-2-fluorobenzyl)oxy)pyridin-2-yl)-2-fluorobenzyl)-1-((2-methyl-2H-tetrazol-5-yl)methyl)-1H-benzo[d]imidazole-6-carboxylic acid], in series [1], the “Predicted Hepatic Clearance (Pred. Cl.)” value was 3.67 mL/min/kg. At GLP-1R, the pEC50 was 6.86.
